{"source": "patent US20100256104A1", "about": "“NOVEL AMIDE COMPOUNDS” (ASTRAZENECA R&D, priority 2009, published 2010)", "data": [{"target": "T1, recombinant human GR (Homo sapiens, UniProt P04150)", "T1 construct": "purchased Panvera/Invitrogen P2812 (kit P2893)", "T1 sequence (P04150 1-777)": "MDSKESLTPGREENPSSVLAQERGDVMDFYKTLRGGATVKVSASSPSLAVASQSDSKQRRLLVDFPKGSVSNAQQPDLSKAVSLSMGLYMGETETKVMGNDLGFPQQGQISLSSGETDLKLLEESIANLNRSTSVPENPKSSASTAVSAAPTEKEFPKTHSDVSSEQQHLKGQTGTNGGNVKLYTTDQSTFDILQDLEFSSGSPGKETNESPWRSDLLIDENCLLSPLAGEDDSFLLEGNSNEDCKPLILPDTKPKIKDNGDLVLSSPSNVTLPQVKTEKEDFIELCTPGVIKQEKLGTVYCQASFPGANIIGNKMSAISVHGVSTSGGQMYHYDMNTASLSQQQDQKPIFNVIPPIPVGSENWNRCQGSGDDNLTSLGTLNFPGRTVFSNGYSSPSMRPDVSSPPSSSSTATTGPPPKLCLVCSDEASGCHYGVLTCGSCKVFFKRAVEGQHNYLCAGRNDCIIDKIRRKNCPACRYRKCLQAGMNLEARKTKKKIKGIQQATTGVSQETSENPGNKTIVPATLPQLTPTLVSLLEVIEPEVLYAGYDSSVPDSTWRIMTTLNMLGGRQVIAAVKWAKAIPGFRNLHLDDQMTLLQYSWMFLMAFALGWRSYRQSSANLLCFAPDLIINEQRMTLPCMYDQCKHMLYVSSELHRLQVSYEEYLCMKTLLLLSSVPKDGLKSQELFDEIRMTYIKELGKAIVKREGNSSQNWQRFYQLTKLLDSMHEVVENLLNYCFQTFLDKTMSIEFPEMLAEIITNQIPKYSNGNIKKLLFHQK", "test": "Human Glucocorticoid Receptor (GR) Assay, fluorescence polarization competition with GS Red tracer", "conditions": "2 hours at room temperature, 100% control 10 μM Dexamethasone, XLfit model 205, read-out: Inhibition of GR binding, IC50", "summary_of_the_method": "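Fluorescence polarization competition: recombinant human GR with GS Red tracer, stabilizing peptide and DTT in potassium phosphate/sodium molybdate/EDTA buffer. 2 h in dark at room temperature, read at ex 530/em 590 nm. Controls: DMSO (0%) and 10 μM dexamethasone (100%).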", "units": {"IC50": "nM"}, "values": [{"smiles": "CCC(=O)O[C@]1(C(=O)SCCO)CC[C@H]2[C@@H]3CCC4=Cc5c(cnn5-c5cccc(C(=O)N6CCC[C@@H]6C(N)=O)c5)C[C@]4(C)[C@@]3(F)[C@@H](O)C[C@@]21C", "note": "[Example 58, (1R,3aS,3bS,10aS, 10bR,11S,12aS)-7-(3-{[(2R)-2-carbamoyl-pyrrolidin-1-yl]carbonyl}phenyl)-10b-fluoro-11-hydroxy-1-{[(2-hydroxyethyl)sulfanyl]carbonyl}-10a,12a-dimethyl-1,2,3,3a,3b,4,5,7,10, 10a,10b,11,12,12a-tetradecahydrocyclo-penta[5,6]naphtho [1,2-f]indazol-1-yl propanoate]", "IC50": 6.9}, {"smiles": "CCC(=O)O[C@]1(C(=O)SCF)[C@H](C)C[C@H]2[C@@H]3CCC4=Cc5c(cnn5-c5cccc(C(=O)N6CCC[C@@H]6C(N)=O)c5)C[C@]4(C)[C@@]3(F)[C@@H](O)C[C@@]21C", "note": "[Example 42, (1R,2R,3aS,3bS, 10aS,10bR,11S,12aS)-7-(3-{[(2R)-2-carbamoyl-pyrrolidin-1-yl]carbonyl}phenyl)-10b-fluoro-1-{(fluoromethyl)sulfanyl] carbonyl}-11-hydroxy-2,10a,12a-trimethyl-1,2,3,3a,3b,4,5,7,10, 10a,10b,11,12,12a-tetradecahydrocyclo-penta[5,6]naphtho [1,2-f]indazol-1-yl propanoate]", "IC50": 4.4}, {"smiles": "C[C@H]1C[C@@H]2[C@H]([C@@H](O)C[C@@]3(C)[C@H]2CC[C@]3(OC(=O)[C@H]2CCCO2)C(=O)SCF)[C@@]2(C)Cc3cnn(-c4cccc(C(=O)NCC(N)=O)c4)c3C=C12", "note": "[Example 30, (1R,3aS,3bS,5S, 10aR,10bS,11S,12aS)-7-{3-[(2-amino-2-oxoethyl)carbamoyl]phenyl}-1-{[(fluoromethyl)sulfanyl]carbonyl}-11-hydroxy-5,10a,12a-trimethyl-1,2,3,3a,3b,4,5,7,10, 10a,10b,11,12,12a-tetradecahydrocyclo-penta[5,6]naphtho [1,2-f]indazol-1-yl (2R)-tetrahydrofuran-2-carboxylate]", "IC50": 2.2}]}]}
